Experimental data from patent publication US20040022676A1, “Apparatus and method for controlled delivery of a gas” (Selective Micro Technologies, LLC, priority 2000, published 2004).

Columns and labels:
biofilm = test: Removal of biofilm from contaminated dental equipment with chlorine dioxide solution
Excerpt: Apparatus 1310 can also be incorporated into a pouch like that depicted in FIG. 15 to generate a desired concentration of gas, e.g., chlorine dioxide, in water. This embodiment is particularly useful in wet applications, e.g., for use in removing biofilm from dental equipment. One such apparatus was constructed and used to generate an aqueous solution containing 50 parts per million chlorine dioxide. It was then emptied into a dental equipment reservoir and allowed to run through the equipment, which was contaminated with biolfilm, and stand overnight. In the morning, the dental equipment was flushed with water. This procedure was repeated the following two nights. The equipment was then tested for the presence of biofilm and the biofilm was diminished. Thereafter, rinsing the equipment once daily with a 5 parts per million solution was adequate to retard the growth of biofilm in the equipment.

microbes = conditions: as low as; cited from earlier work

## [O][Cl+][O-] [chlorine dioxide]
biofilm; 50 parts per million solution, run through and left overnight, three nights
  presence of biofilm in dental equipment after treatment: diminished
biofilm; rinsing the equipment once daily, after initial treatment
  concentration of solution adequate to retard the growth of biofilm: 5 parts per million
microbes
  concentration at which effective as disinfectant: 0.2 mg/L
